From ChEMBL document CHEMBL1212709, “Design of isoform-selective phospholipase D inhibitors that modulate cancer cell invasiveness” (Nat Chem Biol, 2009)

Experiments:
Phospholipase D2 [1] = target: T1, Phospholipase D2 (Homo sapiens, UniProt O14939); test: Inhibition of human PLD2 assessed as release of methyl-[3H]choline from choline-methyl-[3H]dipalmitoylphosphatidylcholine after 30 mins by exogenous substrate assay
Phospholipase D2 [2] = target: T1, Phospholipase D2; test: Inhibition of GFP-tagged human PLD2 expressed in human HEK293 cells assessed as decrease in phosphatidylbutanol-[d9] production after 30 mins by mass spectrometric analysis; format: cell-based
Phospholipase D1 [3] = target: T2, Phospholipase D1 (Homo sapiens, UniProt Q13393)
T2 sequence (Q13393 whole entry): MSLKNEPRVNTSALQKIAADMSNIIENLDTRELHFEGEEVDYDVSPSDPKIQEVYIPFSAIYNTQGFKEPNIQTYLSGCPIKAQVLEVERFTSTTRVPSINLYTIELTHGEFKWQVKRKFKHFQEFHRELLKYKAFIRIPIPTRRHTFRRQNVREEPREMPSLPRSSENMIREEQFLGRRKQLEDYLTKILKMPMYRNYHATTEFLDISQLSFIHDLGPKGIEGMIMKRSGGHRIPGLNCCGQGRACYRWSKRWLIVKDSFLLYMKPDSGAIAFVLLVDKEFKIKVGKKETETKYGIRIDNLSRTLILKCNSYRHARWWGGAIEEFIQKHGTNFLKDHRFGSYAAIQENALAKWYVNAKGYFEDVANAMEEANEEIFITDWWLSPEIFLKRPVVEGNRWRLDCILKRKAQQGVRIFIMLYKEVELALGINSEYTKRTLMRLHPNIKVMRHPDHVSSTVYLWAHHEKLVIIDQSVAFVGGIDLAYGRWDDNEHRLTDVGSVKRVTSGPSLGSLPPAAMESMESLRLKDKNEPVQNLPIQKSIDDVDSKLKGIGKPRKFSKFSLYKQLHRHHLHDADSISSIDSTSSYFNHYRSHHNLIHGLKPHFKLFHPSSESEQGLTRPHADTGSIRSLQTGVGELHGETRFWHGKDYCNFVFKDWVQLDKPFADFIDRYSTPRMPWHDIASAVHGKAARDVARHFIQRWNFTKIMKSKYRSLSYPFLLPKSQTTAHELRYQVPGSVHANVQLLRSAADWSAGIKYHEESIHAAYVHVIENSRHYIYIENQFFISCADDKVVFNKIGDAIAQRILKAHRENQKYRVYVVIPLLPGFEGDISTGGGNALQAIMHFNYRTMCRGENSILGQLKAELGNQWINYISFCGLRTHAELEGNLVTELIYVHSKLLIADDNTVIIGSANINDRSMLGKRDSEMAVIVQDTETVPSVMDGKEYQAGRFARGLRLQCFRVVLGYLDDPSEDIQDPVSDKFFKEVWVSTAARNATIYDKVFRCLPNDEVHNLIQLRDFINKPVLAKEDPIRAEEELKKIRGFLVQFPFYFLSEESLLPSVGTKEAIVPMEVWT

Phospholipase D1 [4] = target: T3, Phospholipase D1 (Rattus norvegicus, UniProt P70496); test: Inhibition of N-terminally truncated rat PLD1 assessed as release of methyl-[3H]choline from choline-methyl-[3H]dipalmitoylphosphatidylcholine after 30 mins by exogenous substrate assay
T3 sequence (P70496 whole entry): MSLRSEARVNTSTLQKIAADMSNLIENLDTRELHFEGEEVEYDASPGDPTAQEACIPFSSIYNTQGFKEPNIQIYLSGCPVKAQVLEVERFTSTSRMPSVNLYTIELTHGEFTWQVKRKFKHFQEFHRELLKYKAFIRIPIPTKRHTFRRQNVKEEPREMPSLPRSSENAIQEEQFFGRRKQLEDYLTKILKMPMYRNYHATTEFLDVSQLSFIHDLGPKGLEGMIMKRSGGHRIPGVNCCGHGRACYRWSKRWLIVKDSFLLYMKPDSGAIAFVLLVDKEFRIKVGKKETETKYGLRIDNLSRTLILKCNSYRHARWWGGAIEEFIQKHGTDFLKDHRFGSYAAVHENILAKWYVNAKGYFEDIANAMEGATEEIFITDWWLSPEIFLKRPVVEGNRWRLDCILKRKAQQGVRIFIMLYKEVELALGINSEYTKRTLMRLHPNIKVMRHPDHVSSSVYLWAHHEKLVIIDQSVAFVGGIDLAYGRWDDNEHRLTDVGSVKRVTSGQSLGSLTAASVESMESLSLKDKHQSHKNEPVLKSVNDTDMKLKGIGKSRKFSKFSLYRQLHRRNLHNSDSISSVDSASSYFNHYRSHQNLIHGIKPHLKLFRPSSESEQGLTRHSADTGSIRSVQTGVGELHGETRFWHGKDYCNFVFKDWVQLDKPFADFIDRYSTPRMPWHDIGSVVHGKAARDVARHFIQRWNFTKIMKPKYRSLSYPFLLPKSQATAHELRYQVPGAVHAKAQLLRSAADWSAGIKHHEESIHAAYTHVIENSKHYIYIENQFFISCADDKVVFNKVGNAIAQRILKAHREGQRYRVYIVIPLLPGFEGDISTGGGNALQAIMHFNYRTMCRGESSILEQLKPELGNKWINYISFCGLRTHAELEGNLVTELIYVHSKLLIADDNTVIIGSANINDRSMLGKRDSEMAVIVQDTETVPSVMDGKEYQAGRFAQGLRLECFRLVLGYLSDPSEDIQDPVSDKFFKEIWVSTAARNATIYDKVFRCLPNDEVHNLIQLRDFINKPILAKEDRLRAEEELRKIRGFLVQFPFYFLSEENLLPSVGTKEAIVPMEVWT

Phospholipase D1 [5] = target: T2, Phospholipase D1; test: Inhibition of human PLD1 assessed as release of methyl-[3H]choline from choline-methyl-[3H]dipalmitoylphosphatidylcholine after 30 mins by exogenous substrate assay
[6] = Inhibition of PLD
Phospholipase D1 [7] = target: T2, Phospholipase D1; test: Inhibition of human PLD1b
[8] = Inhibition of in Streptomyces chromofuscus PLD

T1 sequence (O14939 whole entry): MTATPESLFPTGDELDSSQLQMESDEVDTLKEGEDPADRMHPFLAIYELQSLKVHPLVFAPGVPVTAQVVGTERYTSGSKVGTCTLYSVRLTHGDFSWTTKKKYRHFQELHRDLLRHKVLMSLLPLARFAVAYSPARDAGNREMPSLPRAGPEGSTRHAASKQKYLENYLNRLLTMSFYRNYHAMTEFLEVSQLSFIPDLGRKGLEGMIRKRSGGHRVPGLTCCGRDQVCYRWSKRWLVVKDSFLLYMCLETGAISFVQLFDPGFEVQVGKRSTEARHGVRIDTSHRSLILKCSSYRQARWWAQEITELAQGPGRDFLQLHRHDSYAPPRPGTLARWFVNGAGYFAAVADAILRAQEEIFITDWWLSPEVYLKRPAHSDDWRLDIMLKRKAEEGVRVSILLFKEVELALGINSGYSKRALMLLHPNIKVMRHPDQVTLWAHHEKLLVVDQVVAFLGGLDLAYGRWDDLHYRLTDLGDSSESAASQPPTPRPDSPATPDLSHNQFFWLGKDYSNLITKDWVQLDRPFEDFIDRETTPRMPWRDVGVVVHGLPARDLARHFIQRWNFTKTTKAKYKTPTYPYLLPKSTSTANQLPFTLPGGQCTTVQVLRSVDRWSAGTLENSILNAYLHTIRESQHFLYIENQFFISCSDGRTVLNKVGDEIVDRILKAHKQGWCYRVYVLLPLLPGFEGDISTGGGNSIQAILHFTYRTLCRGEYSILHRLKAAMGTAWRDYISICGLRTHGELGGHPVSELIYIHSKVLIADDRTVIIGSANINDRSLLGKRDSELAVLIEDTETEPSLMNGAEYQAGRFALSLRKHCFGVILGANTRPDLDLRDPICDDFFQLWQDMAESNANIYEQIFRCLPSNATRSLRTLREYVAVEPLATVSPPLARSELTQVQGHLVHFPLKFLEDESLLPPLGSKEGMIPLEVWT

| Structure (SMILES) | IC50 (Phospholipase D2 [1]) | IC50 (Phospholipase D2 [2]) | IC50 (Phospholipase D1 [3]) | IC50 (Phospholipase D1 [4]) | IC50 (Phospholipase D1 [5]) | IC50 [6] | IC50 (Phospholipase D1 [7]) | IC50 [8] |
| --- | --- | --- | --- | --- | --- | --- | --- | --- |
| O=C(NCCN1CCC(n2c(=O)[nH]c3ccccc32)CC1)c1cc(Br)c(Br)o1 | 170 nM | 220 nM | 8.9 nM | 2900 nM | 79 nM |  |  |  |
| O=C(NCCN1CCC(n2c(O)nc3ccccc32)CC1)c1cccc2c1-c1ccccc1C2=O | 600 nM | 1000 nM | 20 nM | 1100 nM | 260 nM |  |  |  |
| O=C(NCCN1CCC(n2c(O)nc3ccccc32)CC1)c1ccc(Cl)c(Cl)c1 | 250 nM | 220 nM | 19 nM | 910 nM | 46 nM |  |  |  |
| O=C(NCCN1CCC(n2c(O)nc3ccccc32)CC1)c1ccc(Cl)cc1 | 130 nM | 140 nM | 6.3 nM | 910 nM | 55 nM |  |  |  |
| COc1ccc(C(=O)NCCN2CCC(n3c(=O)[nH]c4ccccc43)CC2)cc1 | > 20000 nM | 1100 nM | 1000 nM | > 20000 nM | 15000 nM |  |  |  |
| O=C(NCCN1CCC(n2c(=O)[nH]c3ccccc32)CC1)n1c2ccccc2c2ccccc21 | 1000 nM | 260 nM | 330 nM | 7200 nM | 300 nM |  |  |  |
| O=C(c1ccc(F)cc1)N(CCN1CCC(n2c(=O)[nH]c3ccccc32)CC1)C(=O)c1ccc(F)cc1 | 2200 nM | 470 nM | 48 nM | 870 nM | 1400 nM |  |  |  |
| Cc1ccc(C(=O)NCCN2CCC(n3c(O)nc4ccccc43)CC2)cc1 | 1100 nM | 210 nM | 32 nM | 1700 nM | 780 nM |  |  |  |
| C=Cc1ccc(C(=O)NCCN2CCC(n3c(=O)[nH]c4ccccc43)CC2)cc1 |  |  | 79 nM |  | 540 nM |  |  |  |
| O=C(NCCN1CCC(n2c(=O)[nH]c3ccccc32)CC1)c1ccc[nH]1 | 1200 nM | 340 nM | 37 nM | 1500 nM | 316 nM |  |  |  |
| O=C(NCCN1CCC(n2c(=O)[nH]c3ccccc32)CC1)c1cc(Cl)cc(Cl)c1 | 1900 nM | 1100 nM | 85 nM | 3500 nM | 400 nM |  |  |  |
| O=C(NCCN1CCC2(CC1)C(=O)NCN2c1ccccc1)c1ccc(C(F)(F)F)cc1 | 4300 nM |  |  | > 20000 nM |  |  |  |  |
| CCC(=C(c1ccc(O)cc1)c1ccc(OCCN(C)C)cc1)c1ccccc1 |  |  | 4800 nM | 28000 nM |  |  |  |  |
| O=C(NCCN1CCC(n2c(=O)[nH]c3ccccc32)CC1)c1cc2cc(F)ccc2[nH]1 | 17 nM |  | 1 nM | 33 nM | 9.5 nM |  |  |  |
| O=C(NCCN1CCC(n2c(=O)[nH]c3ccccc32)CC1)c1cc2ccccc2s1 | 340 nM | 210 nM | 14 nM | 1000 nM | 100 nM |  |  |  |
| O=C(NCCN1CCC2(CC1)C(=O)NCN2c1ccccc1)c1ccc2ccccc2c1 |  |  |  | > 20000 nM |  |  |  |  |
| O=C(c1ccc(OCCN2CCCCC2)cc1)c1c(-c2ccc(O)cc2)sc2cc(O)ccc12 [RALOXIFENE] | 3400 nM | 10000 nM | 8500 nM | > 20000 nM | 4300 nM |  |  |  |
| Oc1ccc(/C=C/c2cc(O)cc(O)c2)cc1 [RESVERATROL] |  |  |  |  |  | > 60000 nM |  |  |
| CC(C)=CCC/C(C)=C/CC/C(C)=C/[C@H]1[C@H](COP(=O)(O)OP(=O)(O)O)[C@@]1(C)CC/C=C(\C)CCC=C(C)C [Z-PSDP] |  |  |  |  |  |  | > 1000 nM | 100 nM |
